# Values quoted from earlier work, collected in patent publication US20260028295A1, “COMPOSITIONS THAT CONTAIN SUSPENDED DICYANDIAMIDE, AND RELATED METHODS” (Keystone Specialty Chemicals LLC, priority 2022, published 2026).
# Details: 25 degrees Celsius
smiles,measurement,value
N#CNC(=N)N [Dicyandiamide],solubility in water,4.13 grams per 100 milliliter
